# Assay results from patent US9187496B2 (priority 2009, dated 2015).
# Where two headings read alike, the source gives them in different places.
# Key:
# [1] = system: Huh-7 cells containing HCV Con1 subgenomic replicon (GS4.1 cells); assay: HCV replicon assay (NS5A ELISA); type: cell-based
# Procedure: General Procedure: Huh-7 cells containing HCV Con1 subgenomic replicon (GS4.1 cells) were grown in Dulbecco's Modified Eagle Medium (DMEM) supplemented with 10% fetal bovine serum (FBS), 2 mM L-glutamine, 110 mg/L sodium pyruvate, 1× non-essential amino acids, 100 U/mL penicillin-streptomycin, and 0.5 mg/mL G418 (Invitrogen). For dose-response testing, the cells were seeded in 96-well plates at 7.5×10^3 cells/well in a volume of 50 μL, and incubated at 37° C./5% CO2. Three hours after plating, 50 μL of ten 2-fold serial dilutions of compounds (highest concentration, 75 μM) were added, and cell cultures were incubated at 37° C./5% CO2 in the presence of 0.5% DMSO. Alternatively, compounds were tested at a single concentration of 15 μM. In all cases, Huh-7 cells lacking the HCV replicon served as negative control. The cells were incubated in the presence of compounds for 72 hrs after which they were monitored for expression of the NS5A protein by enzyme-linked immunosorbent assay (ELISA). For this, the plates were then fixed for 1 min with acetone/methanol (1:1, v/v), washed twice with phosphate-buffered saline (PBS), 0.1% Tween 20, blocked for 1 hr at room temperature with TNE buffer containing 10% FBS and then incubated for 2 hr at 37° C. with the anti-NS5A mouse monoclonal antibody A-236 (ViroGen) diluted in the same buffer. After washing three times with PBS, 0.1% Tween 20, the cells were incubated 1 hr at 37° C. with anti-mouse immunoglobulin G-peroxidase conjugate in TNE, 10% FBS. After washing as described above, the reaction was developed with O-phenylenediamine (Zymed). The reaction was stopped after 30 min with 2 N H2SO4, and absorbance was read at 492 nm using Sunrise Tecan spectrophotometer. EC50 values were determined from the % inhibition versus concentration data using a sigmoidal non-linear regression analysis based on four parameters with Tecan Magellan software.
# GS4.1 cells = assay: Cytotoxicity evaluation in GS4.1 cells (Cell Titer 96 AQueous One); type: cell-based, human; details: cellular viability
# Procedure: For cytotoxicity evaluation, GS4.1 cells were treated with compounds as described above and cellular viability was monitored using the Cell Titer 96 AQueous One Solution Cell Proliferation Assay (Promega). CC50 values were determined from the % cytotoxicity versus concentration data with Tecan Magellan software as described above.
# [2] = Hepatitis C virus, Huh-7, GS4.1 cells, 72 hrs, NS5A ELISA, read-out: EC50
# [3] = GS4.1 cells, 72 hrs, NS5A ELISA, read-out: EC50
Compound,"EC50 [1, 2]",CC50 (GS4.1 cells),"EC50 [1, 3]","EC50 ([1]; Hepatitis C virus, Huh-7, 72 h)"
COC(=O)N[C@H](C(=O)N1CCCC1c1ncc(-c2cn3cc(-c4ccc(-c5cnc([C@@H]6CCCN6C(=O)[C@@H](NC(=O)OC)C(C)C)[nH]5)cc4)nc3s2)[nH]1)C(C)C (stereo partly drawn) [A7],< 1 nM,> 75000 nM,–,–
CC(C)(C)OC(=O)N[C@@H](C(=O)N1CCC[C@H]1C(=O)Nc1cn2cc(-c3ccccc3)sc2n1)c1ccccc1 [A27],10 to 100 nM,> 75000 nM,–,–
CC(C)(C)OC(=O)Nc1ccc(-c2cn3cc(NC(=O)[C@@H]4CCCN4C(=O)[C@H](NC(=O)OC(C)(C)C)c4ccccc4)nc3s2)cc1 [A29],> 100 nM,10000 to 75000 nM,–,–
COC(=O)N[C@H](C(=O)N1CCC[C@H]1c1ncc(-c2ccc(-c3cn4cc(NC(=O)C5CCCN5C(=O)CNC(=O)OC(C)(C)C)nc4s3)cc2)[nH]1)C(C)C (stereo partly drawn) [A31],10 to 100 nM,> 75000 nM,–,–
COC(=O)N[C@H](C(=O)N1CCC[C@H]1C(=O)Nc1ccc(-c2cn3cc(NC(=O)C4CCCN4C(=O)[C@@H](NC(=O)OC)C(C)C)nc3s2)cc1)c1ccccc1 (stereo partly drawn) [A32],< 1 nM,> 75000 nM,–,–
COC(=O)N[C@H](C(=O)N1CCC[C@H]1c1ncc(-c2ccc(-c3cn4cc(-c5cnc(C6CCCN6C(=O)[C@@H](NC(=O)OC(C)(C)C)c6ccccc6)[nH]5)nc4s3)cc2)[nH]1)C(C)C (stereo partly drawn) [A33],< 1 nM,> 75000 nM,–,–
COC(=O)N[C@H](C(=O)N1CCC[C@H]1C(=O)Nc1ccc(-c2cn3cc(NC(=O)OC(C)(C)C)nc3s2)cc1)C(C)C [A34],–,10000 to 75000 nM,1 to 10 nM,–
COC(=O)N[C@H](C(=O)N1CCCC1c1ncc(-c2ccc(-c3csc4c(-c5cnc(C6CCCN6C(=O)OCc6ccccc6)[nH]5)csc34)cc2)[nH]1)C(C)C (stereo partly drawn) [A49],< 1 nM,> 75000 nM,–,–
COC(=O)N[C@H](C(=O)N1CCC[C@H]1c1ncc(-c2ccc(-c3cn4cc(NC(=O)[C@@H]5CCCN5C(=O)[C@H](NC(=O)OC(C)C)c5ccccc5)nc4s3)cc2)[nH]1)C(C)C [A56],< 1 nM,> 75000 nM,–,–
COC(=O)N[C@H](C(=O)N1CCC[C@H]1c1ncc(-c2ccc(-c3cn4cc(NC(=O)[C@@H]5CCCN5C(=O)[C@H](NC(=O)OCC(C)C)c5ccccc5)nc4s3)cc2)[nH]1)C(C)C [A57],–,> 75000 nM,< 1 nM,–
COC(=O)N[C@H](C(=O)N1CCCC1c1ncc(-c2ccc(-c3csc4c(-c5cnc(C6CCCN6C(=O)[C@@H](NC(=O)OC(C)(C)C)C(C)C)[nH]5)csc34)cc2)[nH]1)C(C)C (stereo partly drawn) [A76],< 1 nM,> 75000 nM,–,–
COC(=O)N[C@H](C(=O)N1CCCC1c1ncc(-c2ccc(-c3csc4c(-c5cnc(C6CCCN6C(=O)[C@H](NC(=O)OC)C(C)C)[nH]5)csc34)cc2)[nH]1)C(C)C (stereo partly drawn) [A77],< 1 nM,> 75000 nM,–,–
COC(=O)N[C@H](C(=O)N1CCCC1c1ncc(-c2csc3c(-c4ccc(-c5cnc(C6CCCN6C(=O)[C@@H](NC(=O)OC)C(C)C)[nH]5)cc4)csc23)[nH]1)c1ccccc1 (stereo partly drawn) [A78],< 1 nM,> 75000 nM,–,–
COC(=O)N[C@@H](C(=O)N1CCC[C@H]1C(=O)Nc1ccc(-c2cn3cc(NC(=O)[C@@H]4CCCN4C(=O)[C@H](NC(=O)OC)c4ccccc4)nc3s2)cc1)c1ccccc1 [A79],–,> 75000 nM,< 1 nM,–
COC(=O)N[C@@H](C(=O)N1CCC[C@H]1C(=O)Nc1ccc(C#Cc2cn3cc(NC(=O)[C@@H]4CCCN4C(=O)[C@H](NC(=O)OC)c4ccccc4)nc3s2)cc1)c1ccccc1 [A80],–,> 75000 nM,< 1 nM,–
COC(=O)N[C@H](C(=O)N1CCCC1c1cc(-c2ccc(-c3csc4c(-c5ccc(-c6cnc(C7CCCN7C(=O)[C@@H](NC(=O)OC)C(C)C)[nH]6)cc5)csc34)cc2)[nH]n1)C(C)C (stereo partly drawn) [A87],< 1 nM,> 75000 nM,–,–
COC(=O)N[C@H](C(=O)N1CCCC1c1nc(-c2ccc(-c3cn4cc(-c5ccc(-c6cnc([C@@H]7CCCN7C(=O)[C@@H](NC(=O)OC)C(C)C)[nH]6)cc5)sc4n3)cc2)c[nH]1)C(C)C (stereo partly drawn) [A93],< 1 nM,> 75000 nM,–,–
COC(=O)N[C@H](C(=O)N1CCCC1c1ncc(-c2ccc(-c3csc4c(-c5ccccc5)csc34)cc2)[nH]1)C(C)C (stereo partly drawn) [A103],1 to 10 nM,10000 to 75000 nM,–,–

Compound,"EC50 [1, 2]",CC50 (GS4.1 cells),"EC50 [1, 3]","EC50 ([1]; Hepatitis C virus, Huh-7, 72 h)"
COC(=O)N[C@H](C(=O)N1CCCC1c1nc(-c2ccc(-c3sc4cc(-c5ccc(-c6cnc([C@@H]7CCCN7C(=O)[C@@H](NC(=O)OC)C(C)C)[nH]6)cc5)sc4c3-c3ccc(-c4cnc(C5CCCN5C(=O)[C@@H](NC(=O)OC)C(C)C)[nH]4)cc3)cc2)c[nH]1)C(C)C (stereo partly drawn) [A105],–,10000 to 75000 nM,–,10 to 100 nM
COC(=O)N[C@H](C(=O)N1CCCC1c1ncc(-c2cc3sc(-c4ncc(-c5c[nH]c([C@@H]6CCCN6C(=O)[C@@H](NC(=O)OC)C(C)C)n5)s4)cc3s2)[nH]1)C(C)C (stereo partly drawn) [A130],< 1 nM,> 75000 nM,–,–
COC(=O)N[C@H](C(=O)N1CCC[C@H]1C(=O)Nc1cn2cc(-c3ccc(NC(=O)CNC(=O)[C@H](NC(=O)OC(C)(C)C)c4ccccc4)cc3)sc2n1)C(C)C [A147],10 to 100 nM,> 75000 nM,–,–
COC(=O)N[C@H](C(=O)N1CCC[C@H]1c1ncc(-c2ccc(-c3cn4cc(NC(=O)CNC(=O)[C@H](NC(=O)OC(C)(C)C)c5ccccc5)nc4s3)cc2)[nH]1)C(C)C [A148],1 to 10 nM,> 75000 nM,–,–
COC(=O)N[C@H](C(=O)N1CCC[C@H]1C(=O)Nc1cn2cc(-c3cccc(NC(=O)[C@@H]4CCCN4C(=O)[C@H](NC(=O)OC)c4ccccc4)c3)sc2n1)C(C)C [A149],10 to 100 nM,10000 to 75000 nM,–,–
COC(=O)N[C@H](C(=O)N1CCC[C@H]1c1ncc(-c2ccc(-c3cn4cc(NC(=O)[C@@H]5CCCN5)nc4s3)cc2)[nH]1)C(C)C [A150],–,10000 to 75000 nM,10 to 100 nM,–
COC(=O)N[C@H](C(=O)N1CCCC1c1ncc(-c2ccc(-c3csc4c(-c5cnc(C6CCCN6C(=O)OC(C)(C)C)[nH]5)csc34)cc2)[nH]1)C(C)C (stereo partly drawn) [A151],–,10000 to 75000 nM,< 1 nM,–
CC(C)(C)OC(=O)N1CCCC1c1ncc(-c2cn3cc(-c4ccc(Cl)cc4)sc3n2)[nH]1 (stereo not drawn) [A152],> 100 nM,10000 to 75000 nM,–,–
COC(=O)N[C@H](C(=O)N1CCCC1c1ncc(-c2ccc(-c3ccc(-c4nc5sccn5c4Cl)cc3)cc2)[nH]1)C(C)C (stereo partly drawn) [A154],10 to 100 nM,10000 to 75000 nM,–,–
COC(=O)N[C@H](C(=O)N1CCC[C@H]1c1cc(-c2ccc(-c3cn4cc(NC(=O)[C@@H]5CCCN5C(=O)[C@H](NC(=O)OC(C)C)c5ccccc5)nc4s3)cc2)[nH]n1)C(C)C [A156],< 1 nM,> 75000 nM,–,–
CC(C)(C)OC(=O)N1CCCC1c1nc(-c2ccc(-c3cn4cc(-c5ccc(-c6cnc([C@@H]7CCCN7C(=O)OC(C)(C)C)[nH]6)cc5)sc4n3)cc2)c[nH]1 (stereo partly drawn) [A157],10 to 100 nM,> 75000 nM,–,–
COC(=O)N[C@H](C(=O)N1CCCC1c1nc(-c2ccc(-c3cc4sc(-c5ccc(-c6cnc([C@@H]7CCCN7C(=O)[C@@H](NC(=O)OC)C(C)C)[nH]6)cc5)cc4s3)cc2)c[nH]1)C(C)C (stereo partly drawn) [A159],< 1 nM,> 75000 nM,–,–
COC(=O)N[C@H](C(=O)N1CCCC1c1ncc(-c2ccc(-c3cn4ccsc4n3)cc2)[nH]1)C(C)C (stereo partly drawn) [A160],10 to 100 nM,> 75000 nM,–,–
CC(C)(C)OC(=O)N1CCCC1c1ncc(-c2ccc(-c3nc4sccn4c3Cl)cc2)[nH]1 (stereo not drawn) [A161],> 100 nM,> 75000 nM,–,–
COC(=O)N[C@H](C(=O)N1CCCC1c1ncc(-c2ccc(-c3cn4c(-c5ccccc5)csc4n3)cc2)[nH]1)C(C)C (stereo partly drawn) [A162],1 to 10 nM,10000 to 75000 nM,–,–
COC(=O)N[C@H](C(=O)N1CCCC1c1ncc(-c2ccc(-c3csc4cc(C(=O)OC)[nH]c34)cc2)[nH]1)C(C)C (stereo partly drawn) [A164],10 to 100 nM,10000 to 75000 nM,–,–
CC(C)(C)OC(=O)N1CCCC1c1ncc(-c2ccc(-c3cn4ccsc4n3)cc2)[nH]1 (stereo not drawn) [A167],> 100 nM,–,–,–
